{
  "source": "patent US20190010533A1",
  "about": "“METHODS FOR SCREENING AND SELECTING TARGET AGENTS FROM MOLECULAR DATABASES” (The Methodist Hospital System, priority 2017, published 2019)",
  "key": {"[1]": {"tested_on": "canonical pathways", "assay": "RNA-seq canonical pathway analysis of 3D AD #A5 cultures treated with anti-Aβ drugs", "type": "cell-based, human", "settings": "AD #A5 DMSO vs treated", "excerpt": "FIG. 7. […] Pearson correlations of global gene expression profile among 2D undifferentiated control ReN cells, 3D control (G2#B2on), AD #A5 (#A5, moderate Aβ42/40 ratio ˜0.2), AD #D4 (#D4, high Aβ42/40 ratio, ˜1.4), and AD #H10 (#H10, extra high Aβ42/40 ratio, ˜1.7). Units are log CPM. b. Volcano plots show −log10(FDR) vs log FC distribution for G2#B2 (control) vs AD #A5 (AD), AD #A5 DMSO vs AD #A5 BSI (BACE inhibitor, Ly2886721), and AD #A5 DMSO vs AD #A5 GSM (gamma secretase modulator, SGSM15606) transcriptomic signatures. […] Canonical pathway analysis between G2#B2 and AD #A5 (Ingenuity pathway analysis, Qiagen). d. Analysis of common canonical pathways. The pathway analysis among G2#B2 vs AD #A5, AD #A5 DMSO vs AD #A5 BSI, and AD #A5 DMSO vs AD #A5 GSM. Activation z-scores indicate that majority of decreased pathways in AD #A5 are restored by BSI and/or GSM treatments. e. […]\nTo examine the multiple single-clonal AD models, unbiased whole genome RNA-seq analyses were performed to compare gene expression profiles among the clonal AD models with different Aβ42/40 ratios, as compared to control 3D cultures and undifferentiated 2D control cells (FIG. 7a-d). […] Differential gene expression profile of 3D AD cultures were analyzed after treating anti-Aβ drugs (BACE1 inhibitor, Ly2886721; Gamma-secretase modulator (GSM), GSM15606) (FIG. 7b). […]"}, "[2]": {"tested_on": "pTau", "assay": "cell-based validation in reformatted high content version of AD-in-a-dish model", "settings": "26 predicted compounds tested", "excerpt": "FIG. 2. Pilot SMART screen used 20 primary hits to identify 5 new compound hits that inhibit pTau (phospho-Tau or phosphorylated Tau).\nTwenty-two of the 38 aforementioned screening hits had LINCS data covering the perturbation profiles for at least 4 cell lines. From these twenty-two hits, 2 were eliminated because no known drug candidates ranked high enough based on transcriptomic similarities to these two primary hits; and 3 others were removed upon inspection of the compound properties of the predictions they made, i.e., the predicted drugs may be toxic or unfit for systematic use. Thus, the 17 primary hits were used to initiate a pilot run using the SMART framework. The cMAP algorithm^7 was used to rank all compounds in the LINCSCloud, based on the similarity of transcriptomic profiles to each of the 17 primary hits. If any compound was determined by cMAP algorithm to have a similarity score larger than 90 to at least one of the primary hits, it was identified as a hit candidate. After filtering based on pharmacology features, 85 candidates predicted by 17 primary hits remained; 26 of these 85 compounds were purchased for validation after analysis for pharmacology and medical practice features."}, "[3]": {"tested_on": "pTau", "assay": "primary high-content screening (HCS) for inhibition of pTau accumulation in neuron cells in 3D culture", "type": "cell-based", "excerpt": "This workflow to identify the mechanisms underlying those screening hits can be used to effectively discover more compounds that can generate similar phenotype. As a proof of concept, the transcriptomic profiles hosted by the Broad Institute'[…] warehouse^28-30 through the NIH LINCS program were used in the initial study."}, "[4]": {"tested_on": "insoluble p-tau species (pSer396/Ser404, pThr181)", "assay": "Western blot analysis in 3D AD models with high Aβ42/40 ratios", "type": "cell-based, human", "settings": "various concentrations", "excerpt": "(§1) FIG. 9. Validation of primary hit candidates. Primary hit candidates were confirmed using Western blot analysis (a) and quantitative immunofluorescence staining in 3D AD models with high Aβ42/40 ratios (#HReN and #A4H1) (b). PHF1 pSer396/Ser404 tau antibody was used to detect changes in phospho tau in 3D AD #HReN cells treated with DMSO vehicle, ebselen, or leflunomide.\n(§2) In addition to MSD Mesoscale ELISA shown in FIG. 8, quantitative Western blot and immunofluorescence analysis were used to validate candidate drugs. […] Ebselen and leflunomide are compounds screened from original HCS screening of […] biologically active/FDA-approved drug library. […] Moreover, quantitative immunofluorescence staining was used to analyze p-tau changes after treating these compounds."}, "[5]": {"tested_on": "p-tau (pSer396/Ser404)", "assay": "quantitative immunofluorescence staining in 3D AD models", "type": "cell-based, human", "settings": "5 μM for 3 weeks", "excerpt": "as §1, §2"}, "[6]": {"tested_on": "3D AD models", "assay": "cellular viability and neurite networks in the immunofluorescence study", "type": "cell-based, human", "settings": "5 μM for 3 weeks", "excerpt": "as §2"}, "[7]": {"tested_on": "genes and pathways", "assay": "whole genome RNAseq analysis after compound treatment versus control", "type": "cell-based", "excerpt": "FIG. 10A-10B. […] PPI information was extracted from STRING database version 10.5 with the cutoff for confidence score at 0.4.\nGiven ebselen and leflunomide in FIG. 9, an unbiased whole genome RNAseq analysis was used to obtain transcriptomic profiles after the treatment of each compound and compare them separately to control conditions. For both treatments, a subset of genes and pathways show significant change (|log FC|>1.5) in the same direction over control condition. […] These 22 genes have 102 PPI pairs among them, and there are 7 genes directly connected to APP (coding Aβ) or MAPT (coding Tau).\nIt's worth noting that the enrichment of immune and inflammatory related pathway changes is consistent with the characteristics of the 3D cell model, as this system contains astrocytes, which is one of the brain innate immune cells. […] Also, neuroinflammatory pathways are highly unregulated in high Abeta42/40 lines (D4 and H10) as compared to A5 (similar to GA2) (data not shown)."}, "[8]": {"tested_on": "primary neurons", "assay": "time-lapse synaptogenesis assay (FM1-43 staining, KCl de-staining)", "type": "cell-based", "protocol": "FIG. 6. Time-lapse synaptogenesis assay identifies pre-synaptic hyperactivity caused by thiorphan's treatments.\nA high content screening (HCS) is carried out on existing 3,000 known drugs and compounds to systematically characterize the effects of known drugs or bioactive compounds on the Parkinson's Disease (PD) induced pluripotent stem (iPS) cell model, with the aim to identify effective hits that can be validated in PD mouse models. […] Cells were stained with FM1-43 (FIG. 6A) and de-stained by KCl stimulation (FIG. 6B). Time-lapse imaging was carried out from the dye uptake until the synapses were completely de-stained. […] A similar assay is applied in iPS cells as well as neuron cell models for PD. In addition to using the prevalence of synaptogenesis as the main readout for the high content screening (HCS), the heterogeneous nature of stem cell differentiation is addressed by identifying and quantifying the prevalence of novel phenotypes other than stem cell and synaptogenesis based on morphological features. Such consideration of cell population heterogeneity brings deeper insight in the HCS and can help identify potential compounds that are causing specific type of differentiations benefiting cure of PD."}},
  "note": "Counter-ions that a name gives are not always drawn. Like-named read-outs stand apart in the source and are kept apart here.",
  "data": [
    {"compound": "NC1=N[C@@]2(c3cc(NC(=O)c4ccc(F)cn4)ccc3F)COC[C@H]2CS1", "note": "[Ly2886721]", "values": [
      {"measurement": "pathways decreased in AD #A5 after treatment (activation z-scores)", "setting": "[1]", "result": "restored"}
    ]},
    {"compound": "C1CCC(C(CC2CCCCN2)C2CCCCC2)CC1", "note": "(stereo not shown) [Perhexiline, perhexiline maleate]", "values": [
      {"measurement": "inhibition of pTau in validation", "setting": "[2]", "result": "successful predictions"}
    ]},
    {"compound": "Nc1ccc(-c2nc3ccc(-c4nc5ccc(N)cc5[nH]4)cc3[nH]2)cc1", "note": "[Ro90-7501]", "values": [
      {"measurement": "inhibition of pTau accumulation (primary screen hit status)", "setting": "[3]", "result": "primary hits"}
    ]},
    {"compound": "COc1nc(-c2cc(C)c(NC(C)c3ccc(F)cc3)nn2)ccc1-n1cnc(C)c1", "note": "(stereo not shown) [SGSM15606]", "values": [
      {"measurement": "pathways decreased in AD #A5 after treatment (activation z-scores)", "setting": "[1]", "result": "restored"}
    ]},
    {"compound": "C/C(=C\\c1ccc(C(=O)O)cc1)c1ccc2c(c1)C(C)(C)CCC2(C)C", "note": "[TTNPB]", "values": [
      {"measurement": "inhibition of pTau accumulation (primary screen hit status)", "setting": "[3]", "result": "primary hit"}
    ]},
    {"compound": "Oc1c(Cl)cc(Cl)c2cccnc12", "note": "[chloroxine]", "values": [
      {"measurement": "inhibition of pTau in validation", "setting": "[2]", "result": "validated hits"}
    ]},
    {"compound": "Cc1oncc1C(=O)Nc1ccc(C(F)(F)F)cc1", "note": "[leflunomide]", "values": [
      {"measurement": "insoluble p-tau species (pSer396/Ser404, pThr181)", "setting": "[4]", "result": "significantly decreased"},
      {"measurement": "p-tau (pSer396/Ser404) accumulation", "setting": "[5]", "result": "robustly decreased"},
      {"measurement": "cellular viability and neurite networks", "setting": "[6]", "result": "without affecting"},
      {"measurement": "pathways changed after treatment", "setting": "[7]; 5 of 6 pathways connected to 12 down-regulated genes", "result": "significantly down-regulated"},
      {"measurement": "genes with significant change versus control", "setting": "[7]; |log FC|>1.5, shared by both treatments", "result": "15 down-regulated and 7 up-regulated genes"}
    ]},
    {"compound": "CC[N+](CC)(CC)CCOc1ccc(/C=C/c2ccccc2)cc1", "note": "[mg624]", "values": [
      {"measurement": "inhibition of pTau accumulation (primary screen hit status)", "setting": "[3]", "result": "top-3 hits"}
    ]},
    {"compound": "N=C(N)c1ccc(OCCCCCOc2ccc(C(=N)N)cc2)cc1", "note": "[pentamidine]", "values": [
      {"measurement": "inhibition of pTau accumulation (primary screen hit status)", "setting": "[3]", "result": "top-3 hits"}
    ]},
    {"compound": "O=C(O)CNC(=O)C(CS)Cc1ccccc1", "note": "(stereo not shown) [thiorphan]", "values": [
      {"measurement": "pre-synaptic activity (FM dye uptake, automatic image quantification)", "setting": "[8]", "result": "causes pre-synaptic hyperactivity"}
    ]},
    {"compound": "ivermectin", "values": [
      {"measurement": "inhibition of pTau accumulation (primary screen hit status)", "setting": "[3]", "result": "top-3 hits"},
      {"measurement": "inhibition of pTau accumulation (primary screen hit status)", "setting": "[3]; listed as Ivermectin", "result": "most significant phenotype"}
    ]}
  ]
}
